PubChem BioAssay AID1919002 (Molecular Pharmacology Branch, DTP, NCI, 2023)
pIC50: −log10 of the molar value.

System: 743489-274-T-PDC complex spheroid growth
Test: Anticancer human tumor 743489-274-T-PDC patient-derived renal cell carcinoma cell line growth inhibition [AhR]
Conditions: for pIC50: curve of first compound; for viability, T/C: stronger effect = lower value
Outline: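 Complex tumor spheroids co-cultured with HUVEC and human MSC stroma; AhR antagonists tested in combination with standard-of-care and investigational agents. Top concentration at or near clinical Cmax (else 10 microM), half-log dilutions; growth expressed as percent test/control.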

[1] = second compound 0.1 µM, first compound 0.0316 µM
[2] = second compound 0.1 µM, first compound 0.1 µM
[3] = second compound 0.1 µM, first compound 0.316 µM
[4] = second compound 0.1 µM, first compound 1 µM
[5] = second compound 0.1 µM, first compound 3.16 µM
[6] = second compound 0.1 µM, first compound 10 µM
[7] = second compound 0.316 µM, first compound 0.0316 µM
[8] = second compound 0.316 µM, first compound 0.1 µM
[9] = second compound 0.316 µM, first compound 0.316 µM
[10] = second compound 0.316 µM, first compound 1 µM
[11] = second compound 0.316 µM, first compound 3.16 µM
[12] = second compound 0.316 µM, first compound 10 µM
[13] = second compound 1 µM, first compound 0.0316 µM
[14] = second compound 1 µM, first compound 0.1 µM
[15] = second compound 1 µM, first compound 0.316 µM
[16] = second compound 1 µM, first compound 1 µM
[17] = second compound 1 µM, first compound 3.16 µM
[18] = second compound 1 µM, first compound 10 µM
[19] = second compound 3.16 µM, first compound 0.0316 µM
[20] = second compound 3.16 µM, first compound 0.1 µM
[21] = second compound 3.16 µM, first compound 0.316 µM
[22] = second compound 3.16 µM, first compound 1 µM
[23] = second compound 3.16 µM, first compound 3.16 µM
[24] = second compound 3.16 µM, first compound 10 µM
[25] = second compound 10 µM, first compound 0.0316 µM
[26] = second compound 10 µM, first compound 0.1 µM
[27] = second compound 10 µM, first compound 0.316 µM
[28] = second compound 10 µM, first compound 1 µM
[29] = second compound 10 µM, first compound 3.16 µM
[30] = second compound 10 µM, first compound 10 µM
[31] = second compound 0.1 µM, first compound 0.00949 µM
[32] = second compound 0.1 µM, first compound 0.03 µM
[33] = second compound 0.1 µM, first compound 0.0949 µM
[34] = second compound 0.1 µM, first compound 0.3 µM
[35] = second compound 0.316 µM, first compound 0.00949 µM
[36] = second compound 0.316 µM, first compound 0.03 µM
[37] = second compound 0.316 µM, first compound 0.0949 µM
[38] = second compound 0.316 µM, first compound 0.3 µM
[39] = second compound 1 µM, first compound 0.00949 µM
[40] = second compound 1 µM, first compound 0.03 µM
[41] = second compound 1 µM, first compound 0.0949 µM
[42] = second compound 1 µM, first compound 0.3 µM
[43] = second compound 3.16 µM, first compound 0.00949 µM
[44] = second compound 3.16 µM, first compound 0.03 µM
[45] = second compound 3.16 µM, first compound 0.0949 µM
[46] = second compound 3.16 µM, first compound 0.3 µM
[47] = second compound 10 µM, first compound 0.00949 µM
[48] = second compound 10 µM, first compound 0.03 µM
[49] = second compound 10 µM, first compound 0.0949 µM
[50] = second compound 10 µM, first compound 0.3 µM
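Note: spheroids exposed to agents for 7 days before readout.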
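Throughout, for viability, T/C: 100% = DMSO vehicle control wells.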

CC1(C)CCC(CN2CCN(c3ccc(C(=O)NS(=O)(=O)c4ccc(NCC5CCOCC5)c([N+](=O)[O-])c4)c(Oc4cnc5[nH]ccc5c4)c3)CC2)=C(c2ccc(Cl)cc2)C1 + CC(CO)NC(=O)c1cc(-c2ccc(Cl)cc2)nn(-c2cnn(C)c2)c1=O
pIC50 (second compound 0.1 µM): < 5.00 | pIC50 (second compound 0.316 µM): < 5.00 | pIC50 (second compound 1 µM): < 5.00 | pIC50 (second compound 3.16 µM): < 5.00 | pIC50 (second compound 10 µM): < 5.00 | viability, T/C [1]: 96.8% | viability, T/C [2]: 97.4% | viability, T/C [3]: 90.6% | viability, T/C [4]: 93.7% | viability, T/C [5]: 106% | viability, T/C [6]: 96.3% | viability, T/C [7]: 110% | viability, T/C [8]: 95% | viability, T/C [9]: 93.1% | viability, T/C [10]: 89% | viability, T/C [11]: 90.3% | viability, T/C [12]: 94.8% | viability, T/C [13]: 92% | viability, T/C [14]: 88.3% | viability, T/C [15]: 98.1% | viability, T/C [16]: 86% | viability, T/C [17]: 91.9% | viability, T/C [18]: 95.8% | viability, T/C [19]: 89.8% | viability, T/C [20]: 96.3% | viability, T/C [21]: 107% | viability, T/C [22]: 95.7% | viability, T/C [23]: 98.9% | viability, T/C [24]: 93.6% | viability, T/C [25]: 95.4% | viability, T/C [26]: 112% | viability, T/C [27]: 93.1% | viability, T/C [28]: 93.9% | viability, T/C [29]: 95% | viability, T/C [30]: 104%

CC1COCCN1c1cc(C2(S(C)(=N)=O)CC2)nc(-c2ccnc3[nH]ccc23)n1 (stereo not given) + CC(CO)NC(=O)c1cc(-c2ccc(Cl)cc2)nn(-c2cnn(C)c2)c1=O
pIC50 (second compound 0.1 µM): < 5.00 | pIC50 (second compound 0.316 µM): < 5.00 | pIC50 (second compound 1 µM): < 5.00 | pIC50 (second compound 3.16 µM): < 5.00 | pIC50 (second compound 10 µM): < 5.00 | viability, T/C [1]: 97.5% | viability, T/C [2]: 89.1% | viability, T/C [3]: 94.7% | viability, T/C [4]: 92% | viability, T/C [5]: 98.7% | viability, T/C [6]: 96.7% | viability, T/C [7]: 90.2% | viability, T/C [8]: 99.5% | viability, T/C [9]: 96.3% | viability, T/C [10]: 86.2% | viability, T/C [11]: 85.3% | viability, T/C [12]: 91.3% | viability, T/C [13]: 99% | viability, T/C [14]: 84.7% | viability, T/C [15]: 95.3% | viability, T/C [16]: 101% | viability, T/C [17]: 87.4% | viability, T/C [18]: 93% | viability, T/C [19]: 92.7% | viability, T/C [20]: 86.8% | viability, T/C [21]: 86.1% | viability, T/C [22]: 90.3% | viability, T/C [23]: 84.5% | viability, T/C [24]: 103% | viability, T/C [25]: 109% | viability, T/C [26]: 94.2% | viability, T/C [27]: 89.9% | viability, T/C [28]: 83.3% | viability, T/C [29]: 93.7% | viability, T/C [30]: 102%

CCN(c1cc(-c2ccc(CN3CCOCC3)cc2)cc(C(=O)NCc2c(C)cc(C)[nH]c2=O)c1C)C1CCOCC1 + CC(CO)NC(=O)c1cc(-c2ccc(Cl)cc2)nn(-c2cnn(C)c2)c1=O
pIC50 (second compound 0.1 µM): < 5.52 | pIC50 (second compound 0.316 µM): < 5.52 | pIC50 (second compound 1 µM): < 5.52 | pIC50 (second compound 3.16 µM): < 5.52 | pIC50 (second compound 10 µM): < 5.52 | viability, T/C [31]: 103% | viability, T/C [32]: 103% | viability, T/C [33]: 99.6% | viability, T/C [34]: 93.5% | viability, T/C (second compound 0.1 µM, first compound 0.949 µM): 93.8% | viability, T/C (second compound 0.1 µM, first compound 3 µM): 112% | viability, T/C [35]: 97.6% | viability, T/C [36]: 96.5% | viability, T/C [37]: 103% | viability, T/C [38]: 102% | viability, T/C (second compound 0.316 µM, first compound 0.949 µM): 90.5% | viability, T/C (second compound 0.316 µM, first compound 3 µM): 92.6% | viability, T/C [39]: 104% | viability, T/C [40]: 102% | viability, T/C [41]: 107% | viability, T/C [42]: 92.4% | viability, T/C (second compound 1 µM, first compound 0.949 µM): 94% | viability, T/C (second compound 1 µM, first compound 3 µM): 106% | viability, T/C [43]: 84.4% | viability, T/C [44]: 92.3% | viability, T/C [45]: 103% | viability, T/C [46]: 82.6% | viability, T/C (second compound 3.16 µM, first compound 0.949 µM): 92.7% | viability, T/C (second compound 3.16 µM, first compound 3 µM): 98.8% | viability, T/C [47]: 105% | viability, T/C [48]: 106% | viability, T/C [49]: 91.7% | viability, T/C [50]: 104% | viability, T/C (second compound 10 µM, first compound 0.949 µM): 101% | viability, T/C (second compound 10 µM, first compound 3 µM): 91.1%

Nc1ncn(C2CC(O)C(CO)S2)c(=O)n1 (stereo not given) + CC(CO)NC(=O)c1cc(-c2ccc(Cl)cc2)nn(-c2cnn(C)c2)c1=O
pIC50 (second compound 0.1 µM): < 6.52 | pIC50 (second compound 0.316 µM): < 6.52 | pIC50 (second compound 1 µM): < 6.52 | pIC50 (second compound 3.16 µM): < 6.52 | pIC50 (second compound 10 µM): < 6.52 | viability, T/C (second compound 0.1 µM, first compound 0.000949 µM): 93.7% | viability, T/C (second compound 0.1 µM, first compound 0.003 µM): 111% | viability, T/C [31]: 102% | viability, T/C [32]: 96% | viability, T/C [33]: 96% | viability, T/C [34]: 114% | viability, T/C (second compound 0.316 µM, first compound 0.000949 µM): 103% | viability, T/C (second compound 0.316 µM, first compound 0.003 µM): 92.9% | viability, T/C [35]: 93% | viability, T/C [36]: 88% | viability, T/C [37]: 86.9% | viability, T/C [38]: 95.1% | viability, T/C (second compound 1 µM, first compound 0.000949 µM): 92.4% | viability, T/C (second compound 1 µM, first compound 0.003 µM): 89.3% | viability, T/C [39]: 91.7% | viability, T/C [40]: 101% | viability, T/C [41]: 87.7% | viability, T/C [42]: 101% | viability, T/C (second compound 3.16 µM, first compound 0.000949 µM): 103% | viability, T/C (second compound 3.16 µM, first compound 0.003 µM): 95.7% | viability, T/C [43]: 84.4% | viability, T/C [44]: 88.3% | viability, T/C [45]: 86.8% | viability, T/C [46]: 92.9% | viability, T/C (second compound 10 µM, first compound 0.000949 µM): 95.5% | viability, T/C (second compound 10 µM, first compound 0.003 µM): 95.1% | viability, T/C [47]: 91.2% | viability, T/C [48]: 95.1% | viability, T/C [49]: 93.4% | viability, T/C [50]: 86.9%
